The target of data set [1] is Mu-type opioid receptor (Rattus norvegicus) (UniProt P33535). As to the kind of experiment: Displacement of [3H]diprenorphine from rat mu opioid receptor expressed in CHO cell membranes at 10^-6 M after 30 mins by liquid scintillation counting analysis.
For data set [2] the target is unchanged. In words: Displacement of [3H]diprenorphine from rat mu opioid receptor expressed in CHO cell membranes at 10^-5 M after 30 mins by liquid scintillation counting analysis.
For data set [3], the target named is T1, Kappa-type opioid receptor (Homo sapiens, UniProt P41145). As to the kind of experiment: Displacement of [3H]diprenorphine from human kappa opioid receptor expressed in CHO cell membranes at 10^-5 M after 30 mins by liquid scintillation counting analysis.
The target of data set [4] is T1, Kappa-type opioid receptor. As to the kind of experiment: Displacement of [3H]diprenorphine from human kappa opioid receptor expressed in CHO cell membranes after 30 mins by liquid scintillation counting analysis.
Data set [5] addresses T1, Kappa-type opioid receptor. In words: Displacement of [3H]diprenorphine from human kappa opioid receptor expressed in CHO cell membranes at 10^-6 M after 30 mins by liquid scintillation counting analysis.
Data set [6] deals with Mus musculus. In words: Sedative activity in sc dosed Kunming mouse assessed as center square duration time at 200 ug/kg after 45 mins by open field test (reference value: 13.2 +/- 3.1 secs). The format is ADME, organism-based. The following applies: in vivo, 0.2 mg/kg, 0.75 h.
Data set [7] deals with Mus musculus. In words: Potency index, ratio of antinociceptive ED50 for U50488H to antinociceptive ED50 for test compound in ip dosed mouse after 20 mins. The format is functional.
Data set [8] relates to Mus musculus. In words: Sedative activity in sc dosed Kunming mouse assessed as center square duration time at 50 ug/kg after 45 mins by open field test (reference value: 13.2 +/- 3.1 secs). The following applies: in vivo, 0.05 mg/kg, 0.75 h. The format is ADME, organism-based.
Data set [9] concerns Mus musculus. In words: Sedative activity in sc dosed Kunming mouse assessed as center square duration distance at 50 ug/kg after 45 mins by open field test (reference value: 1.77 +/- 0.81 m). The format is ADME, organism-based. The following applies: in vivo, 0.05 mg/kg, 0.75 h.
The test system of data set [10] is Mus musculus. In words: Antinociceptive activity in ip dosed mouse assessed as acetic acid induced writhing administered 30 mins prior to acetic acid challenge measured for 20 mins. The format is functional.
In data set [11] the test system is Mus musculus. As to the kind of experiment: Peripheral restriction index, ratio of sedative ED50 in sc dosed Kunming mouse to antinociceptive ED50 in ip dosed mouse.
In data set [12] the test system is Mus musculus. As to the kind of experiment: Sedative activity in sc dosed Kunming mouse assessed as center square duration distance at 100 ug/kg after 45 mins by open field test (reference value: 1.77 +/- 0.81 m). The format is ADME, organism-based. The following applies: in vivo, 0.1 mg/kg, 0.75 h.
For data set [13], the system named is Mus musculus. As to the kind of experiment: Sedative activity in sc dosed Kunming mouse assessed as center square duration time at 100 ug/kg after 45 mins by open field test (reference value: 13.2 +/- 3.1 secs). The following applies: in vivo, 0.1 mg/kg, 0.75 h. Format: ADME, organism-based.
For data set [14], the system named is Mus musculus. In words: Sedative activity in sc dosed Kunming mouse assessed as crossing number at 200 ug/kg after 45 mins by open field test (reference value: 155 +/- 34). Format: ADME, organism-based. The following applies: in vivo, 0.2 mg/kg, 0.75 h.
For data set [15], the system named is Mus musculus. In words: Sedative activity in sc dosed Kunming mouse assessed as center square duration distance at 200 ug/kg after 45 mins by open field test (reference value: 1.77 +/- 0.81 m). The format is ADME, organism-based. The following applies: in vivo, 0.2 mg/kg, 0.75 h.
In data set [16] the test system is Mus musculus. In words: Sedative activity in sc dosed Kunming mouse assessed as crossing number at 100 ug/kg after 45 mins by open field test (reference value: 155 +/- 34). Format: ADME, organism-based. The following applies: in vivo, 0.1 mg/kg, 0.75 h.
Data set [17] relates to Mus musculus. As to the kind of experiment: Sedative activity in sc dosed Kunming mouse assessed as crossing number at 50 ug/kg after 45 mins by open field test (reference value: 155 +/- 34). Format: ADME, organism-based. The following applies: in vivo, 0.05 mg/kg, 0.75 h.
The test system of data set [18] is Mus musculus. In words: Sedative activity in sc dosed Kunming mouse assessed as […] after 20 mins by rotation test. The following applies: in vivo. Format: ADME, organism-based.
Data set [19] deals with Mus musculus. In words: Sedative activity in sc dosed Kunming mouse assessed as center square duration distance at 25 ug/kg after 45 mins by open field test (reference value: 1.77 +/- 0.81 m). Format: ADME, organism-based. The following applies: in vivo, 0.025 mg/kg, 0.75 h.
Data set [20] deals with Mus musculus. In words: Sedative activity in sc dosed Kunming mouse assessed as center square duration time at 25 ug/kg after 45 mins by open field test (reference value: 13.2 +/- 3.1 secs). Format: ADME, organism-based. The following applies: in vivo, 0.025 mg/kg, 0.75 h.
The nature of data set [21]: Selectivity ratio of Ki for rat mu opioid receptor to Ki for human kappa opioid receptor.
The subject of data set [22] is Mus musculus. In words: Sedative activity in sc dosed Kunming mouse assessed as crossing number at 25 ug/kg after 45 mins by open field test (reference value: 155 +/- 34). The format is ADME, organism-based. The following applies: in vivo, 0.025 mg/kg, 0.75 h.

Here are results for 15 compounds from ChEMBL document CHEMBL3808316, “Design, synthesis and biological evaluation of novel tetrahydroisoquinoline quaternary derivatives as peripheral κ-opioid receptor agonists” (Bioorg Med Chem, 2016).

A value given as a limit tells only on which side of the number the result lay.

T1 sequence (P41145 whole entry): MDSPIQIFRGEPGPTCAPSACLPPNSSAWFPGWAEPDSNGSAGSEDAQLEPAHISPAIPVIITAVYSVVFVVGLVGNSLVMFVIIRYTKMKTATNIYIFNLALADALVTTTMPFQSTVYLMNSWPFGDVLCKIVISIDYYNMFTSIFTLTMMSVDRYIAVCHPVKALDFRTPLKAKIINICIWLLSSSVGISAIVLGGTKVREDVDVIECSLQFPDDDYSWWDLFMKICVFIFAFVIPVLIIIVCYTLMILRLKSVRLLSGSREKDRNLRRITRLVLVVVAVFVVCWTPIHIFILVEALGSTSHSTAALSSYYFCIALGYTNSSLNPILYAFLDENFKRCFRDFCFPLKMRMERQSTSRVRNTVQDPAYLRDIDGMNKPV
Chain of Mu-type opioid receptor (Rattus norvegicus) (P33535 whole entry): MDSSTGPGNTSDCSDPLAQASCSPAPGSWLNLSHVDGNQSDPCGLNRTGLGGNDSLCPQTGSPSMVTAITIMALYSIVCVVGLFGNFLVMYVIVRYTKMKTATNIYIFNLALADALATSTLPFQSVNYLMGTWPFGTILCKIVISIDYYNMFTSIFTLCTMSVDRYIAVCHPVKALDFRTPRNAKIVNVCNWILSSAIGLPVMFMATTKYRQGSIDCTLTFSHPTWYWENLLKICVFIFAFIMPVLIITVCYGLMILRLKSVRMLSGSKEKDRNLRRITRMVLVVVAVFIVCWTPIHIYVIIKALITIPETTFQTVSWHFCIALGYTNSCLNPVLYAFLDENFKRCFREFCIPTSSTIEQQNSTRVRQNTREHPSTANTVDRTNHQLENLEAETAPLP

With `C[N+]1(CC2c3cc(F)ccc3CCN2C(=O)C2CC(=O)c3ccc(Cl)cc32)CCCC1` (stereo not drawn), the inhibition was 8.9% in data set [1], 26.5% in data set [2], 97.4% in data set [3] and 86% in data set [5]. In addition, the affinity in data set [4] corresponds to a Ki of 138 nM.
On to `O=C1CC(C(=O)N2CCc3ccccc3C2C[N+]2(Cc3ccc(F)cc3)CCCC2)c2cc(Cl)ccc21` (stereo not drawn), for which the inhibition is 0% in data set [1], 0% in [2], 13.1% in data set [3] and 0% in data set [5].
`COc1ccc2c(c1)CCN(C(=O)C1CC(=O)c3ccc(Cl)cc31)C2C[N+]1(C)CCCC1` (stereo not drawn): the inhibition in data set [1] turned out to be 4%; in data set [2] it was 9.8%; in [3], 85.5%; in data set [5], 50%.
On to `CCCC[N+]1(CC2c3ccccc3CCN2C(=O)C2CC(=O)c3ccc(Cl)cc32)CCCC1.[I-]` (stereo not drawn), for which the Time in data set [6] is reported as 27.4 s; in data set [8], 17.4 s; in data set [13] it was 19.1 s. In addition, the inhibition in data set [1] was determined as 28.8%; in data set [2] it was 62.4%; in [3], 100%; in [5] it was 100%. Besides, the “Ratio ED50” value came out at 40 in data set [7] and 10.2 in data set [11]. Further, the Activity in data set [9] is on record as 1.02 m; in data set [12], 1.92 m; in data set [14] it was 91; in data set [15] it was 1.93 m; in data set [16], 138; in data set [17], 153. For the same compound, the ED50 was 0.022 mg/kg in data set [10] and 0.24 mg/kg in [18]. For the same compound, the affinity in data set [4] corresponds to a Ki of 0.94 nM.
Take `CC[N+]1(CC2c3ccccc3CCN2C(=O)C2CC(=O)c3ccc(Cl)cc32)CCCC1` (stereo not drawn): the inhibition was determined as 0% in [1], 0% in data set [2], 89.1% in data set [3] and 31.9% in data set [5].
As for `C[N+]1(CC2c3ccccc3CCN2C(=O)C2CC(=O)c3ccc(Cl)cc32)CCCC1` (stereo not drawn), the inhibition is 0% in [1], 0% in data set [2], 83.7% in [3] and 10.8% in data set [5]. In data set [4], this compound came in with a Ki above 10000 nM.
In the case of `COc1ccc(C[N+]2(CC3c4ccccc4CCN3C(=O)C3CC(=O)c4ccc(Cl)cc43)CCCC2)cc1` (stereo not drawn), the inhibition in [1] was determined as 0%; in [2], 9.8%; in [3], 83%; in data set [5] it was 3.9%.
With `O=C1CC(C(=O)N2CCc3ccccc3C2C[N+]2(CC3CC3)CCCC2)c2cc(Cl)ccc21` (stereo not drawn), the inhibition amounted to 29.2% in data set [1], 48% in data set [2], 100% in [3] and 98.8% in data set [5]. Also, in [4], the inhibitory constant (Ki) came out at 3.56 nM.
For `COc1ccc2c(c1)C(C[N+]1(C)CCCC1)N(C(=O)C1CC(=O)c3ccc(Cl)cc31)CC2` (stereo not drawn), the inhibition in data set [1] was 0%; in [2], 0%; in data set [3], 8.6%; in data set [5], 0%.
As for `C[N+]1(CC2c3ccc(O)cc3CCN2C(=O)C2CC(=O)c3ccc(Cl)cc32)CCCC1` (stereo not drawn), the inhibition amounted to 8.2% in [1], 34.5% in [2], 87.7% in data set [3] and 67.3% in [5]. This compound gave an inhibition constant (Ki) in data set [4] of 231 nM.
In the case of `O=C1CC(C(=O)N2CCc3ccccc3C2C[N+]2(Cc3ccc(Cl)cc3Cl)CCCC2)c2cc(Cl)ccc21` (stereo not drawn), the inhibition in data set [1] was determined as 0%; in [2], 10.4%; in data set [3], 31.9%; in [5], 12.1%.
Taken in the same sequence, the figures for `O=C1CC(C(=O)N2CCc3ccccc3C2C[N+]2(Cc3ccc(Cl)cc3)CCCC2)c2cc(Cl)ccc21` (stereo not drawn) were 0%, 10%, 89.3% and 31.3%.
For the compound `C=CC[N+]1(CC2c3ccccc3CCN2C(=O)C2CC(=O)c3ccc(Cl)cc32)CCCC1` (stereo not drawn), the inhibition worked out at 37.4% in data set [1], 56.5% in [2], 100% in data set [3] and 100% in [5]. In data set [4], this compound displayed a Ki of 1.86 nM.
With `O=C1CC(C(=O)N2CCc3ccccc3C2C[N+]2(Cc3ccccc3)CCCC2)c2cc(Cl)ccc21` (stereo not drawn), the inhibition came to 0% in data set [1], 0% in [2], 86% in data set [3] and 43.1% in data set [5].
For `O=C1CC(C(=O)N2CCc3ccccc3C2CN2CCCC2)c2cc(Cl)ccc21` (stereo not drawn), the Activity in [19] is 1.21 m; in data set [22] it was 71. In data set [20], the Time was found to be 27.1 s. In [21], the Ratio Ki came to 21.1. The ED50 in data set [10] was determined as 0.000406 mg/kg; in [18], 0.000568 mg/kg. Also, the “Ratio ED50” value in [11] stood at 1.4. Moreover, the inhibition constant Ki in [4] is 0.033 nM.
